The nature of this data set: Conversion of the modified indigo compound to indigo under hydrolyzing conditions. It is filed as physicochemical. The method, then: The hydrolysis is performed using any chemical compound or condition that is capable of converting the dye compound to indigo. In some embodiments, the hydrolysis is performed in aqueous compositions which contain a hydrolyzing agent. In other embodiments, the hydrolyzing agent may be selected by one skilled in the art and may include, without limitation, a base, heat, steam, or a combination thereof.

In the case of `O=C1/C(=C2/C(=O)c3ccccc3N2C(=O)c2ccncc2)N(C(=O)c2ccncc2)c2ccccc21` [Compound 37], the hydrolysis to indigo entry is listed as “hydrolyzes to indigo”.
